US11180504B2 (ORCHID PHARMA LTD., priority 2016, dated 2021)
≈ marks a conversion by molar mass, not a printed value. Read-outs that look alike come from different tables or passages of the source.

How the values were obtained:
[1] = system: carbapenem sensitive Escherichia coli; experiment: MIC by broth micro-dilution (CLSI), carbapenem sensitive E. coli; assay type: cell-based; settings: Escherichia coli, ATCC25922, ESBL −ve E. coli ATCC25922; read-out: MIC
[2] = system: carbapenem sensitive Pseudomonas aeruginosa; experiment: MIC by broth micro-dilution (CLSI), carbapenem sensitive P. aeruginosa; assay type: cell-based; settings: Pseudomonas aeruginosa, ATCC27853, Meropenem susceptible P. aeruginosa ATCC27853; read-out: MIC
[3] = system: carbapenemase producing K. pneumoniae; experiment: MIC by broth micro-dilution (CLSI), carbapenemase producing K. pneumoniae; assay type: cell-based, Klebsiella pneumoniae
[4] = system: methicillin-sensitive Staphylococcus aureus; experiment: MIC by broth micro-dilution (CLSI), methicillin-sensitive S. aureus; assay type: cell-based; settings: Staphylococcus aureus, ATCC 29213 / MSSA, MSSA S. aureus ATCC29213; read-out: MIC
[5] = Klebsiella pneumoniae, ATCCBAA1705, KPC-2 K. pneumoniae ATCC BAA-1705, read-out: MIC

In the case of C[C@@H](NC(=O)Cn1cnnn1)[C@H]1C(=O)N2C(C(=O)O)=C(S[C@@H]3CN[C@H](C(=O)N4CCC5(CCCN5)CC4)C3)[C@H](C)[C@H]12 [Example 352, (4R,5S,6R)-3-((3S,5S)-5-(1,8-diazaspiro[4.5]decane-8-carbonyl)pyrrolidin-3-ylthio)-6-((R)-1-(2-(1H-tetrazol-1-yl)acetamido)ethyl)-4-methyl-7-oxo-1-azabicyclo[3.2.0]hept-2-ene-2-carboxylic acid], the MIC [1] is reported as 0.25 µg/mL (≈ 0.425 µM), the MIC [2] is reported as 2 µg/mL (≈ 3.4 µM) and the MIC [3, 5] is reported as 2 µg/mL (≈ 3.4 µM). The MIC [4] was 4 µg/mL (≈ 6.81 µM).

C[C@@H](NC(=O)[C@@H](N)Cn1cnnn1)[C@H]1C(=O)N2C(C(=O)O)=C(S[C@@H]3CN[C@H](C(=O)N(C)C)C3)[C@H](C)[C@H]12 [Example 322, (4R,5S,6R)-6-((R) - 1-((S)-2-amino-3-(1H-tetrazol-1-yl)propanamido)ethyl)-3-((3S,5S)-5-(dimethylcarbamoyl)pyrrolidin-3-ylthio)-4-methyl-7-oxo-1-azabicyclo[3.2.0]hept-2-ene-2-carboxylic acid] showed an MIC [1] of 2 µg/mL (≈ 3.83 µM), an MIC [2] of over 128 µg/mL and an MIC [3, 5] of 16 µg/mL (≈ 30.7 µM). For the same compound, the MIC [4] was 16 µg/mL (≈ 30.7 µM).

Compound CNCc1nnc(CC(=O)N[C@H](C)[C@H]2C(=O)N3C(C(=O)O)=C(S[C@@H]4CN[C@H](C(=O)N(C)C)C4)[C@H](C)[C@H]23)o1 [Example 295] has an MIC [1] of 2 µg/mL (≈ 3.73 µM), an MIC [2] of 64 µg/mL (≈ 119 µM) and an MIC [3, 5] of 16 µg/mL (≈ 29.9 µM). The MIC [4] was 16 µg/mL (≈ 29.9 µM).

Compound C[C@@H](NC(=O)Cn1cnnn1)[C@H]1C(=O)N2C(C(=O)O)=C(S[C@@H]3CN[C@H](C(=O)N4CC5CNC5C4)C3)[C@H](C)[C@H]12 (single isomer, unassigned) [Example 590] has an MIC [1] of 0.25 µg/mL (≈ 0.458 µM), an MIC [2] of 1 µg/mL (≈ 1.83 µM) and an MIC [3, 5] of 1 µg/mL (≈ 1.83 µM). The MIC [4] was 4 µg/mL (≈ 7.33 µM).

C[C@@H](NC(=O)C(F)F)[C@H]1C(=O)N2C(C(=O)O)=C(SC[C@@H]3CNCCN3)[C@H](C)[C@H]12 [Example 289] gave an MIC [1] of 8 µg/mL (≈ 19.1 µM), an MIC [2] of over 128 µg/mL and an MIC [3, 5] of 16 µg/mL (≈ 38.2 µM). It also gave an MIC [4] of 8 µg/mL (≈ 19.1 µM).

Compound COc1nnnn1CC(=O)N[C@H](C)[C@H]1C(=O)N2C(C(=O)O)=C(S[C@@H]3CN[C@H](C(=O)N(C)C)C3)[C@H](C)[C@H]12 [Example 385, (4R,5S,6R)-3-((3S,5S)-5-(dimethylcarbamoyl)pyrrolidin-3-ylthio)-6-((R)-1-(2-(5-methoxy-1H-tetrazol-1-yl)acetamido)ethyl)-4-methyl-7-oxo-1-azabicyclo[3.2.0]hept-2-ene-2-carboxylic acid] has an MIC [1] of 0.25 µg/mL (≈ 0.478 µM), an MIC [2] of 64 µg/mL (≈ 122 µM) and an MIC [3, 5] of 2 µg/mL (≈ 3.83 µM). For the same compound, the MIC [4] was 4 µg/mL (≈ 7.65 µM).

With C[C@@H](NC(=O)Cn1cnnn1)[C@H]1C(=O)N2C(C(=O)O)=C(SC3CN(C(=O)[C@@H]4C[C@H](N)CN4)C3)[C@H](C)[C@H]12 [Example 387] the MIC [1] was 0.25 µg/mL (≈ 0.481 µM), the MIC [2] was 32 µg/mL (≈ 61.6 µM) and the MIC [3, 5] was 8 µg/mL (≈ 15.4 µM). For the same compound, the MIC [4] was 8 µg/mL (≈ 15.4 µM).

CNCc1cn(CC(=O)N[C@H](C)[C@H]2C(=O)N3C(C(=O)O)=C(S[C@@H]4CN[C@H](C(=O)N(C)C)C4)[C@H](C)[C@H]23)nn1 [Example 309, (4R,5S,6R)-3-((3S,5S)-5-(dimethylcarbamoyl)pyrrolidin-3-ylthio)-4-methyl-6-((R) - 1-(2-(4-((methylamino)methyl)-1H-1,2,3-triazol-1-yl)acetamido)ethyl)-7-oxo-1-azabicyclo[3.2.0]hept-2-ene-2-carboxylic acid] was tested, and the MIC [1] was 1 µg/mL (≈ 1.87 µM), the MIC [2] was 32 µg/mL (≈ 59.9 µM) and the MIC [3, 5] was 4 µg/mL (≈ 7.48 µM). For the same compound, the MIC [4] was 16 µg/mL (≈ 29.9 µM).

Work on C[C@@H](NC(=O)Cn1cnnn1)[C@H]1C(=O)N2C(C(=O)O)=C(S[C@@H]3CNC(CNC(=O)[C@H]4CSCN4)C3)[C@H](C)[C@H]12 (stereo partly shown) [Example 354] yielded an MIC [1] of 0.125 µg/mL (≈ 0.221 µM), an MIC [2] of 32 µg/mL (≈ 56.6 µM) and an MIC [3, 5] of 1 µg/mL (≈ 1.77 µM). It also gave an MIC [4] of 2 µg/mL (≈ 3.54 µM).

With C[C@@H](NC(=O)Cn1cnnn1)[C@H]1C(=O)N2C(C(=O)O)=C(S[C@@H]3CN[C@H](C(=O)N4CCC(N5CC[C@@H](N)C5)CC4)C3)[C@H](C)[C@H]12 [Example 409, (4R,5S,6R)-6-((R)-1-(2-(1H-tetrazol-1-yl)acetamido)ethyl)-3-((3S,5S)-5-(4-((R)-3-aminopyrrolidin-1-yl)piperidine-1-carbonyl)pyrrolidin-3-ylthio)-4-methyl-7-oxo-1-azabicyclo[3.2.0]hept-2-ene-2-carboxylic acid] the MIC [1] was 1 µg/mL (≈ 1.62 µM), the MIC [2] was 4 µg/mL (≈ 6.49 µM) and the MIC [3, 5] was 2 µg/mL (≈ 3.24 µM). It also gave an MIC [4] of 4 µg/mL (≈ 6.49 µM).

In the case of C[C@@H](NC(=O)Cn1cnnn1)[C@H]1C(=O)N2C(C(=O)O)=C(S[C@@H]3CN[C@H](C(=O)N4CCC5CN(C[C@@H](O)CN)CCC54)C3)[C@H](C)[C@H]12 (single isomer, unassigned) [Example 521], the MIC [1] is reported as 0.5 µg/mL (≈ 0.773 µM), the MIC [2] is reported as 2 µg/mL (≈ 3.09 µM) and the MIC ([3]; KPC-2 K. pneumoniae ATCC BAA-1705) is reported as 0.5 µg/mL (≈ 0.773 µM). For the same compound, the MIC [4] was 2 µg/mL (≈ 3.09 µM).

Work on C[C@@H](NC(=O)Cn1cnnn1)[C@H]1C(=O)N2C(C(=O)O)=C(S[C@@H]3CN[C@H](C(=O)N4CCN(C)CC4)C3)[C@H](C)[C@H]12 [Example 359, (4R,5S,6R)-6-((R)-1-(2-(1H-tetrazol-1-yl)acetamido)ethyl)-4-methyl-3-((3S,5S)-5-(4-methylpiperazine-1-carbonyl)pyrrolidin-3-ylthio)-7-oxo-1-azabicyclo[3.2.0]hept-2-ene-2-carboxylic acid] yielded an MIC [1] of 0.5 µg/mL (≈ 0.913 µM), an MIC [2] of 16 µg/mL (≈ 29.2 µM) and an MIC [3, 5] of 2 µg/mL (≈ 3.65 µM). The MIC [4] was 8 µg/mL (≈ 14.6 µM).

C[C@@H](NC(=O)Cn1cnnn1)[C@H]1C(=O)N2C(C(=O)O)=C(S[C@@H]3CN[C@H](C(=O)N4C[C@@H](F)[C@@H](N)C4)C3)[C@H](C)[C@H]12 [Example 498, (4R,5S,6R)-6-((R)-1-(2-(1H-tetrazol-1-yl)acetamido)ethyl)-3-((3S,5S)-5-((3S,4R)-3-amino-4-fluoropyrrolidine-1-carbonyl)pyrrolidin-3-ylthio)-4-methyl-7-oxo-1-azabicyclo[3.2.0]hept-2-ene-2-carboxylic acid] was tested, and the MIC [1] was 0.125 µg/mL (≈ 0.227 µM), the MIC [2] was 8 µg/mL (≈ 14.5 µM) and the MIC [3, 5] was 2 µg/mL (≈ 3.63 µM). For the same compound, the MIC [4] was 2 µg/mL (≈ 3.63 µM).

In the case of C[C@@H](NC(=O)Cn1cnnn1)[C@H]1C(=O)N2C(C(=O)O)=C(S[C@@H]3CN[C@H](C(=O)N4C[C@@H](N)[C@@H](O)C4)C3)[C@H](C)[C@H]12 [Example 400, (4R,5S,6R)-6-((R)-1-(2-(1H-tetrazol-1-yl)acetamido)ethyl)-3-((3S,5S)-5-((3R,4S)-3-amino-4-hydroxypyrrolidine-1-carbonyl)pyrrolidin-3-ylthio)-4-methyl-7-oxo-1-azabicyclo[3.2.0]hept-2-ene-2-carboxylic acid], the MIC [1] is reported as 0.125 µg/mL (≈ 0.227 µM), the MIC [2] is reported as 1 µg/mL (≈ 1.82 µM) and the MIC [3, 5] is reported as 1 µg/mL (≈ 1.82 µM). It also gave an MIC [4] of 4 µg/mL (≈ 7.28 µM).

Work on C[C@@H](NC(=O)Cn1cnnn1)[C@H]1C(=O)N2C(C(=O)O)=C(S[C@@H]3CN[C@H](C(=O)N4C[C@@H](N)C[C@H]4CO)C3)[C@H](C)[C@H]12 [Example 412, (4R,5S,6R)-6-((R)-1-(2-(1H-tetrazol-1-yl)acetamido)ethyl)-3-((3S,5S)-5-((2S,4S)-4-amino-2-(hydroxymethyl)pyrrolidine-1-carbonyl)pyrrolidin-3-ylthio)-4-methyl-7-oxo-1-azabicyclo[3.2.0]hept-2-ene-2-carboxylic acid] yielded an MIC [1] of 0.25 µg/mL (≈ 0.444 µM), an MIC [2] of 1 µg/mL (≈ 1.77 µM) and an MIC [3, 5] of 2 µg/mL (≈ 3.55 µM). The MIC [4] was 2 µg/mL (≈ 3.55 µM).

In the case of CC(=O)N1C[C@@H](N)C[C@H]1CSC1=C(C(=O)O)N2C(=O)[C@H]([C@@H](C)NC(=O)C(F)F)[C@H]2[C@H]1C [Example 265], the MIC [1] is reported as 2 µg/mL (≈ 4.34 µM), the MIC [2] is reported as over 128 µg/mL and the MIC [3, 5] is reported as 8 µg/mL (≈ 17.4 µM). It also gave an MIC [4] of 2 µg/mL (≈ 4.34 µM).
